Source: ChEMBL document CHEMBL1201862, “PubChem BioAssay data set” (2004)
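Tested at 5 concentrations; 48 h exposure; 96-well plates; endpoints linearly interpolated, else capped at highest concentration. GI50 marks 50% less growth.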 The source made the active and inactive calls. No stated cut-off is given here; in the data, active = GI50 up to about 1.1 µM and inactive = higher.

How the values were obtained:
Assay in all cases: inhibition of tumour cell growth, NCI panel, 48 h
EKVX = test system: EKVX
SW-620 = test system: SW-620
SNB-75 = test system: SNB-75
A498 = test system: A498
RXF 393 = test system: RXF 393
SNB-19 = test system: SNB-19
OVCAR-3 = test system: OVCAR-3
NCI-H23 = test system: NCI-H23
HOP-92 = test system: HOP-92
SNB-78 = test system: SNB-78
NCI-H226 = test system: NCI-H226
786-0 = test system: 786-0
HCT-15 = test system: HCT-15
NCI-H522 = test system: NCI-H522
DU-145 = test system: DU-145
BT-549 = test system: BT-549
MCF7 = test system: MCF7
MDA-MB-435 = test system: MDA-MB-435
T47D = test system: T47D
PC-3 = test system: PC-3

Row | Structure (SMILES) | GI50 (EKVX) | GI50 (SW-620) | GI50 (SNB-75) | GI50 (A498) | GI50 (RXF 393) | GI50 (SNB-19) | GI50 (OVCAR-3) | GI50 (NCI-H23) | GI50 (HOP-92) | GI50 (SNB-78) | GI50 (NCI-H226) | GI50 (786-0) | GI50 (HCT-15) [µM] | GI50 (NCI-H522) | GI50 (DU-145) | GI50 (BT-549) | GI50 (MCF7) | GI50 (MDA-MB-435) | GI50 (T47D) | GI50 (PC-3)
1 | CCCCCCCCCCCCCCC(C)CCC(=O)O (stereo not given) | > 100 µM (inactive) | > 100 µM (inactive) | > 100 µM (inactive) | > 100 µM (inactive) | > 100 µM (inactive) | > 100 µM (inactive) | 68.7 µM (inactive) | > 100 µM (inactive) | 62.5 µM (inactive) | > 100 µM (inactive) | > 100 µM (inactive) | 80.9 µM (inactive) | – | – | – | – | – | – | – | –
2 | CSc1nc(NC2OCC(OC(C)=O)C(OC(C)=O)C2OC(C)=O)c2c(n1)OCC2=O (stereo not given) | > 100 µM (inactive) | > 100 µM (inactive) | > 100 µM (inactive) | > 100 µM (inactive) | > 100 µM (inactive) | > 100 µM (inactive) | > 100 µM (inactive) | > 100 µM (inactive) | – | > 100 µM (inactive) | > 100 µM (inactive) | > 100 µM (inactive) | > 100 | > 100 µM (inactive) | – | – | – | – | – | –
3 | CC1=C(O)/C(=C/C(C)CCC/C(C)=C/C=C/C(C)CCCc2ccoc2)OC1=O (stereo not given) | 25 µM (inactive) | 33.3 µM (inactive) | 25.2 µM (inactive) | – | 24.7 µM (inactive) | – | – | 23.7 µM (inactive) | – | 18.3 µM (inactive) | 23.2 µM (inactive) | 25.5 µM (inactive) | – | 37.2 µM (inactive) | – | – | – | – | – | –
4 | CC(=O)C(CN(C)Cc1ccccc1)C(c1ccccc1)c1c(O)c2ccccc2oc1=O (stereo not given) | > 100 µM (inactive) | > 100 µM (inactive) | > 100 µM (inactive) | > 100 µM (inactive) | > 100 µM (inactive) | 11 µM (inactive) | – | > 100 µM (inactive) | 31.9 µM (inactive) | > 100 µM (inactive) | 10.4 µM (inactive) | > 100 µM (inactive) | > 100 | 80.4 µM (inactive) | – | – | – | – | – | –
5 | O=C(c1ccccc1)c1cn(/N=C\c2ccccc2)c(=O)nc1-c1ccccc1 | > 100 µM (inactive) | > 100 µM (inactive) | > 100 µM (inactive) | > 100 µM (inactive) | > 100 µM (inactive) | > 100 µM (inactive) | > 100 µM (inactive) | > 100 µM (inactive) | 92.9 µM (inactive) | > 100 µM (inactive) | > 100 µM (inactive) | > 100 µM (inactive) | > 100 | > 100 µM (inactive) | – | – | – | – | – | –
6 | CCOc1ccc(/N=C\c2ccc3cc(C)ccc3n2)cc1 | 55.6 µM (inactive) | 58.9 µM (inactive) | 40.7 µM (inactive) | 72.3 µM (inactive) | 91 µM (inactive) | 49 µM (inactive) | 33.1 µM (inactive) | > 100 µM (inactive) | 66.8 µM (inactive) | > 100 µM (inactive) | > 100 µM (inactive) | 51.6 µM (inactive) | 41.8 | > 100 µM (inactive) | – | – | – | – | – | –
7 | CC1C[C@H](C)CC(C(O)CC2CC(=O)N(Cc3ccccc3)C(=O)C2)C1O (stereo not given in full) | > 100 µM (inactive) | > 100 µM (inactive) | > 100 µM (inactive) | > 100 µM (inactive) | > 100 µM (inactive) | > 100 µM (inactive) | > 100 µM (inactive) | 2.65 µM (inactive) | > 100 µM (inactive) | > 100 µM (inactive) | > 100 µM (inactive) | > 100 µM (inactive) | – | > 100 µM (inactive) | – | – | – | – | – | –
8 | C[N+](C)(C)CC1CCCC(C[N+](C)(C)C)C1=NO (stereo not given) | > 100 µM (inactive) | > 100 µM (inactive) | > 100 µM (inactive) | – | > 100 µM (inactive) | > 100 µM (inactive) | > 100 µM (inactive) | > 100 µM (inactive) | – | > 100 µM (inactive) | > 100 µM (inactive) | > 100 µM (inactive) | > 100 | – | – | – | – | – | – | –
9 | COC(=O)[C@H](C)[C@H]1CC[C@@](C)([C@H]2CC3C(C)(C)[C@H]4CCC(C)=C[C@H]4C[C@@]3(C)O2)OO1 (stereo not given in full) | 13.7 µM (inactive) | 8.83 µM (inactive) | 6.14 µM (inactive) | 8.71 µM (inactive) | > 10 µM (inactive) | 14.8 µM (inactive) | 13.2 µM (inactive) | 7.6 µM (inactive) | 2.86 µM (inactive) | 10.8 µM (inactive) | 14.7 µM (inactive) | 3.33 µM (inactive) | 10.5 | 1.66 µM (inactive) | – | – | – | – | – | –
10 | O/N=C1/C(=C/c2ccc3c(c2)OCO3)CCCC1C(NO)c1ccc2c(c1)OCO2 (stereo not given) | 35.1 µM (inactive) | 30.8 µM (inactive) | 27.2 µM (inactive) | 26.5 µM (inactive) | 23.6 µM (inactive) | 32.4 µM (inactive) | 14.6 µM (inactive) | 30.4 µM (inactive) | – | 31.3 µM (inactive) | – | 28.9 µM (inactive) | 32 | 17.7 µM (inactive) | – | – | – | – | – | –
11 | NC(=O)C12CCC1C1CCCCC12N1CCOCC1 (stereo not given) | > 100 µM (inactive) | > 100 µM (inactive) | > 100 µM (inactive) | > 100 µM (inactive) | > 100 µM (inactive) | > 100 µM (inactive) | > 100 µM (inactive) | > 100 µM (inactive) | > 100 µM (inactive) | > 100 µM (inactive) | – | > 100 µM (inactive) | > 100 | > 100 µM (inactive) | – | – | – | – | – | –
12 | COC(=O)C1Cc2c(n(C)c3ccccc23)C(c2ccccc2)N1 (stereo not given) | 92.3 µM (inactive) | > 100 µM (inactive) | > 100 µM (inactive) | 48.4 µM (inactive) | – | > 100 µM (inactive) | 53 µM (inactive) | > 100 µM (inactive) | > 100 µM (inactive) | > 100 µM (inactive) | 22.6 µM (inactive) | 80 µM (inactive) | 14.2 | 16.9 µM (inactive) | – | – | – | – | – | –
13 | CN(C)CCCNc1ccc2ncn3c4ccccc4c(=O)c1c23 | – | 4.71 µM (inactive) | 10.5 µM (inactive) | > 10 µM (inactive) | – | 20.3 µM (inactive) | 16 µM (inactive) | 12.3 µM (inactive) | 5.9 µM (inactive) | 14.2 µM (inactive) | 7.21 µM (inactive) | 4.52 µM (inactive) | 8.53 | 6.17 µM (inactive) | – | – | – | – | – | –
14 | Oc1ncnc2c1sc(=S)n2-c1ccccc1 | > 100 µM (inactive) | > 100 µM (inactive) | > 100 µM (inactive) | 94.8 µM (inactive) | – | > 100 µM (inactive) | > 100 µM (inactive) | > 100 µM (inactive) | 70.3 µM (inactive) | > 100 µM (inactive) | > 100 µM (inactive) | > 100 µM (inactive) | > 100 | > 100 µM (inactive) | – | – | – | – | – | –
15 | Cn1cnnc1Sc1c([N+](=O)[O-])nc(-c2ccc([N+](=O)[O-])cc2)n1C | 27.5 µM (inactive) | 16.1 µM (inactive) | 31.3 µM (inactive) | > 100 µM (inactive) | – | > 100 µM (inactive) | 17 µM (inactive) | 18.2 µM (inactive) | 19.4 µM (inactive) | 18.3 µM (inactive) | 20.9 µM (inactive) | 17.7 µM (inactive) | – | 6.1 µM (inactive) | – | – | – | – | – | –
16 | O=c1c2ccccc2c(=O)c2c1cc(Cl)c1[nH]c3c([nH]c12)c(Cl)cc1c(=O)c2ccccc2c(=O)c13 | > 100 µM (inactive) | > 100 µM (inactive) | > 100 µM (inactive) | > 100 µM (inactive) | > 100 µM (inactive) | > 100 µM (inactive) | > 100 µM (inactive) | > 100 µM (inactive) | – | > 100 µM (inactive) | > 100 µM (inactive) | > 100 µM (inactive) | > 100 | > 100 µM (inactive) | – | – | – | – | – | –
17 | C=C1CC[C@@H]2C(C)(C)CCC[C@@]2(C)[C@@H]1Cc1cc(O)ccc1O | 4.65 µM (inactive) | 8.43 µM (inactive) | 1.95 µM (inactive) | 13.7 µM (inactive) | 1.67 µM (inactive) | 6.24 µM (inactive) | 5.31 µM (inactive) | 5.97 µM (inactive) | 2.79 µM (inactive) | 1.93 µM (inactive) | 2.55 µM (inactive) | 3.4 µM (inactive) | 3.09 | 1.84 µM (inactive) | – | – | – | – | – | –
18 | CN(C)c1n/c(=N/c2ccc3c(c2)OCO3)ss1 | 49.9 µM (inactive) | 74 µM (inactive) | 9.71 µM (inactive) | 43.9 µM (inactive) | 96.4 µM (inactive) | 74.5 µM (inactive) | – | 66.4 µM (inactive) | 56.5 µM (inactive) | 44 µM (inactive) | > 100 µM (inactive) | 70.6 µM (inactive) | 40.4 | 26.7 µM (inactive) | – | – | – | – | – | –
19 | Cc1cn2c(=O)c3ncn(C4OC(CO)C(O)C4O)c3n(C)c2n1 (stereo not given) | > 100 µM (inactive) | > 100 µM (inactive) | > 100 µM (inactive) | > 100 µM (inactive) | > 100 µM (inactive) | > 100 µM (inactive) | > 100 µM (inactive) | > 100 µM (inactive) | > 100 µM (inactive) | > 100 µM (inactive) | > 100 µM (inactive) | > 100 µM (inactive) | > 100 | > 100 µM (inactive) | – | – | – | – | – | –
20 | NS(=O)(=O)c1ccc(NC(=O)Cc2nc3ccccc3s2)cc1 | 22.6 µM (inactive) | 17.1 µM (inactive) | 16.4 µM (inactive) | 21.1 µM (inactive) | 18.6 µM (inactive) | 23.5 µM (inactive) | 16.8 µM (inactive) | 15.9 µM (inactive) | 16.2 µM (inactive) | 19.5 µM (inactive) | 17.9 µM (inactive) | 19.4 µM (inactive) | 17.7 | 18.1 µM (inactive) | – | – | – | – | – | –
21 | C/C(=N\NC(N)=S)C(CN1CCCCC1)C(C1=C(O)c2ccccc2OC1)c1ccccc1 (stereo not given) | > 100 µM (inactive) | > 100 µM (inactive) | > 100 µM (inactive) | > 100 µM (inactive) | > 100 µM (inactive) | > 100 µM (inactive) | 82.4 µM (inactive) | > 100 µM (inactive) | 22.5 µM (inactive) | – | > 100 µM (inactive) | > 100 µM (inactive) | > 100 | > 100 µM (inactive) | > 100 µM (inactive) | > 100 µM (inactive) | > 100 µM (inactive) | > 100 µM (inactive) | 79.6 µM (inactive) | > 100 µM (inactive)
